Laboratory results published in ChEMBL document CHEMBL1130203, “Novel fluoroquinolone antibacterial agents containing oxime-substituted (aminomethyl)pyrrolidines: synthesis and antibacterial activity of 7-(4-(aminomethyl)-3-(methoxyimino)pyrrolidin-1-yl)-1-cyclopropyl-6- fluoro-4-oxo-1,4-dihydro[1,8]naphthyridine-3-carboxylic acid (LB20304)” (J Med Chem, 1997).
In brackets after ≈: the same amount, converted by molar mass.

Experiments:
[1] = system: Enterococcus faecalis; experiment: Minimum inhibitory concentration (MIC) against Streptococcus faecalis 29212; type: functional; details: Enterococcus faecalis; read-out: MIC
[2] = system: Pseudomonas aeruginosa; experiment: Minimum inhibitory concentration (MIC) against Pseudomonas aeruginosa 1912E; type: functional; details: Pseudomonas aeruginosa; read-out: MIC
[3] = system: Staphylococcus epidermidis; experiment: Minimum inhibitory concentration (MIC) against Staphylococcus epidermidis 178; type: functional; details: Staphylococcus epidermidis; read-out: MIC
[4] = system: Escherichia coli; experiment: Minimum inhibitory concentration (MIC) against Escherichia coli 10536; type: functional
[5] = system: Staphylococcus aureus; experiment: Minimum inhibitory concentration (MIC) against Staphylococcus aureus 241; type: functional; details: Staphylococcus aureus; read-out: MIC
[6] = system: Escherichia coli; experiment: Minimum inhibitory concentration (MIC) against Escherichia coli TEM9 2639E; type: functional; details: Escherichia coli; read-out: MIC
[7] = system: Staphylococcus aureus; experiment: Minimum inhibitory concentration (MIC) against Staphylococcus aureus giorgio; type: functional
[8] = system: Escherichia coli; experiment: Minimum inhibitory concentration (MIC) against Escherichia coli 3190Y; type: functional
[9] = system: Staphylococcus aureus; experiment: Minimum inhibitory concentration (MIC) against Staphylococcus aureus 6538p.; type: functional
[10] = system: Enterobacter cloacae; experiment: Minimum inhibitory concentration (MIC) against Enterobacter cloacae P99; type: functional
[11] = system: Staphylococcus epidermidis; experiment: Minimum inhibitory concentration (MIC) against Staphylococcus epidermidis 887E; type: functional
[12] = system: Klebsiella aerogenes; experiment: Minimum inhibitory concentration (MIC) against Klebsiella aerogenes 1082E; type: functional; details: Klebsiella aerogenes; read-out: MIC
[13] = system: Bacillus subtilis; experiment: Minimum inhibitory concentration (MIC) against Bacillus subtilis ATCC 6633; type: functional
[14] = system: Acinetobacter calcoaceticus; experiment: Minimum inhibitory concentration (MIC) against Acinetobacter calcoaceticus 15473; type: functional; details: Acinetobacter calcoaceticus; read-out: MIC
[15] = Tmax was determined in Rats after Peroral administration; type: ADME, organism-based; details: rat, in vivo, po
[16] = Area under curve was determined in Rats after peroral administration; type: ADME, organism-based; details: rat, in vivo, po
[17] = species on record: Mus musculus; experiment: 50% Effective Dose against systemic infection in mouse by Staphylococcus aureus giorgo; type: functional
[18] = system: Streptococcus pneumoniae; experiment: Minimum inhibitory concentration (MIC) against Streptococcus pneumoniae 77A
[19] = species on record: Mus musculus; experiment: 50% Effective Dose against systemic infection in mouse by Pseudomonas aeruginosa 1912E; type: functional
[20] = system: Escherichia coli; experiment: Minimum inhibitory concentration (MIC) against Escherichia coli 851E
[21] = Oral bioavailability in rat; type: ADME, organism-based; details: in vivo
[22] = system: Staphylococcus aureus; experiment: Minimum inhibitory concentration (MIC) against Staphylococcus aureus giorgo
[23] = species on record: Mus musculus; experiment: 50% Effective Dose against systemic infection in mouse by Escherichia coli 851E; type: functional
[24] = system: Pseudomonas aeruginosa; experiment: Minimum inhibitory concentration (MIC) against Pseudomonas aeruginosa 1912E
[25] = maximum Plasma concentration in Rats was determined after Peroral administration; type: ADME, organism-based; set-up: route oral; details: rat, po
[26] = Half-life in Rats was determined after Peroral administration; type: ADME, organism-based; details: rat, in vivo, po
[27] = system: Acinetobacter calcoaceticus; experiment: Minimum inhibitory concentration (MIC) against Acinetobacter calcoaceticus 5473; type: functional

MIC [1] [µg/mL]	MIC [2] [µg/mL]	MIC [3] [µg/mL]	MIC [4] [µg/mL]	MIC [5] [µg/mL]	MIC [6] [µg/mL]	MIC [7] [µg/mL]	MIC [8] [µg/mL]	MIC [9] [µg/mL]	MIC [10] [µg/mL]	MIC [11] [µg/mL]	MIC [12] [µg/mL]	MIC [13] [µg/mL]	MIC [14] [µg/mL]	SMILES	other results
0.063 (≈ 0.151 µM)	2 (≈ 4.78 µM)	1 (≈ 2.39 µM)	0.063 (≈ 0.151 µM)	1 (≈ 2.39 µM)	0.25 (≈ 0.597 µM)	0.016 (≈ 0.0382 µM)	0.031 (≈ 0.0741 µM)	0.031 (≈ 0.0741 µM)	0.063 (≈ 0.151 µM)	0.031 (≈ 0.0741 µM)	0.25 (≈ 0.597 µM)	0.031 (≈ 0.0741 µM)	0.25 (≈ 0.597 µM)	CO/N=C1\CN(c2c(F)cc3c(=O)c(C(=O)O)cn(C4CC4)c3c2OC)CC1CN (stereo not drawn)	
0.063 (≈ 0.156 µM)	0.5 (≈ 1.24 µM)	2 (≈ 4.96 µM)	< 0.008	2 (≈ 4.96 µM)	0.031 (≈ 0.0768 µM)	< 0.008	< 0.008	< 0.008	< 0.008	< 0.008	0.031 (≈ 0.0768 µM)	< 0.008	0.016 (≈ 0.0397 µM)	CCO/N=C1\CN(c2nc3c(cc2F)c(=O)c(C(=O)O)cn3C2CC2)CC1CN (stereo not drawn)	
0.031 (≈ 0.0666 µM)	1 (≈ 2.15 µM)	2 (≈ 4.3 µM)	< 0.008	2 (≈ 4.3 µM)	0.063 (≈ 0.135 µM)	< 0.008	< 0.008	< 0.008	< 0.008	< 0.008	0.063 (≈ 0.135 µM)	< 0.008	< 0.008	NCC1CN(c2nc3c(cc2F)c(=O)c(C(=O)O)cn3C2CC2)C/C1=N\OCc1ccccc1 (stereo not drawn)	
0.063 (≈ 0.146 µM)	2 (≈ 4.64 µM)	1 (≈ 2.32 µM)	≤ 0.008	1 (≈ 2.32 µM)	0.063 (≈ 0.146 µM)	< 0.008	0.016 (≈ 0.0371 µM)	0.008 (≈ 0.0185 µM)	≤ 0.008	< 0.008	0.25 (≈ 0.579 µM)	< 0.008	0.031 (≈ 0.0718 µM)	CC(C)(C)O/N=C1\CN(c2nc3c(cc2F)c(=O)c(C(=O)O)cn3C2CC2)CC1CN (stereo not drawn)	
0.25 (≈ 0.634 µM)	2 (≈ 5.07 µM)	4 (≈ 10.1 µM)	0.063 (≈ 0.16 µM)	4 (≈ 10.1 µM)	0.5 (≈ 1.27 µM)	0.063 (≈ 0.16 µM)	0.063 (≈ 0.16 µM)	0.031 (≈ 0.0786 µM)	0.13 (≈ 0.33 µM)	0.063 (≈ 0.16 µM)	0.5 (≈ 1.27 µM)	0.031 (≈ 0.0786 µM)	1 (≈ 2.54 µM)	CCn1cc(C(=O)O)c(=O)c2cc(F)c(N3C/C(=N\OC)C(CN)C3)c(F)c21 (stereo not drawn)	
0.13 (≈ 0.375 µM)	0.5 (≈ 1.44 µM)	32 (≈ 92.4 µM)	0.031 (≈ 0.0895 µM)	16 (≈ 46.2 µM)	0.063 (≈ 0.182 µM)	0.031 (≈ 0.0895 µM)	< 0.008	0.031 (≈ 0.0895 µM)	0.031 (≈ 0.0895 µM)	0.016 (≈ 0.0462 µM)	0.063 (≈ 0.182 µM)	0.016 (≈ 0.0462 µM)	0.13 (≈ 0.375 µM)	NCC1CCN(c2nc3c(cc2F)c(=O)c(C(=O)O)cn3C2CC2)C1 (stereo not drawn)	Tmax [15]: 0.17 h; AUC [16]: 380 ng·h/mL; ED50 [17]: 8.03 mg/kg; MIC [18]: 0.063 µg/mL (≈ 0.182 µM); ED50 [19]: 29.8 mg/kg; MIC [20]: 0.031 µg/mL (≈ 0.0895 µM); bioavailability [21]: 10.1%; MIC [22]: 0.031 µg/mL (≈ 0.0895 µM); ED50 [23]: > 13.5 mg/kg; MIC [24]: 0.5 µg/mL (≈ 1.44 µM); Cmax [25]: 300 ng/mL; half-life [26]: 2.2 h
0.5 (≈ 1.24 µM)	2 (≈ 4.96 µM)	128 (≈ 317 µM)	0.063 (≈ 0.156 µM)	128 (≈ 317 µM)	0.5 (≈ 1.24 µM)	0.13 (≈ 0.322 µM)	0.063 (≈ 0.156 µM)	0.063 (≈ 0.156 µM)	0.13 (≈ 0.322 µM)	0.13 (≈ 0.322 µM)	0.5 (≈ 1.24 µM)	0.25 (≈ 0.62 µM)	1 (≈ 2.48 µM)	CNCC1CN(c2nc3c(cc2F)c(=O)c(C(=O)O)cn3C2CC2)C/C1=N\OC (stereo not drawn)	
0.13 (≈ 0.288 µM)	2 (≈ 4.43 µM)	16 (≈ 35.4 µM)	0.031 (≈ 0.0687 µM)	< 0.008	0.13 (≈ 0.288 µM)	0.016 (≈ 0.0354 µM)	0.016 (≈ 0.0354 µM)	0.016 (≈ 0.0354 µM)	0.031 (≈ 0.0687 µM)	< 0.008	0.13 (≈ 0.288 µM)	< 0.008	0.016 (≈ 0.0354 µM)	NCC1CN(c2nc3c(cc2F)c(=O)c(C(=O)O)cn3C2CC2)C/C1=N\Oc1ccccc1 (stereo not drawn)	
0.13 (≈ 0.307 µM)	1 (≈ 2.36 µM)	1 (≈ 2.36 µM)	0.031 (≈ 0.0733 µM)	1 (≈ 2.36 µM)	0.25 (≈ 0.591 µM)	0.016 (≈ 0.0378 µM)	0.016 (≈ 0.0378 µM)	0.031 (≈ 0.0733 µM)	0.063 (≈ 0.149 µM)	0.031 (≈ 0.0733 µM)	0.25 (≈ 0.591 µM)	0.016 (≈ 0.0378 µM)		CO/N=C1\CN(c2c(F)cc3c(=O)c(C(=O)O)cn(C4CC4)c3c2Cl)CC1CN (stereo not drawn)	MIC [27]: 0.25 µg/mL (≈ 0.591 µM)
